Source: PubChem BioAssay (NCI)
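All cell lines were grown in 96-well plates and treated with compound for 48 hours. The concentration for full growth arrest is given as TGI.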

What was measured:
Test in all cases: NCI anticancer screen, dose series, 48 h
KM12 colon = tested on: KM12 colon
MOLT-4 leukemia = tested on: MOLT-4 leukemia
SF-268 CNS = tested on: SF-268 CNS
NCI-H522 lung = tested on: NCI-H522 lung
IGROV1 ovarian = tested on: IGROV1 ovarian
TK-10 renal = tested on: TK-10 renal
UACC-62 melanoma = tested on: UACC-62 melanoma
786-0 renal = tested on: 786-0 renal
HCT-15 colon = tested on: HCT-15 colon
HL-60(TB) leukemia = tested on: HL-60(TB) leukemia
SF-295 CNS = tested on: SF-295 CNS
OVCAR-4 ovarian = tested on: OVCAR-4 ovarian
NCI-H23 lung = tested on: NCI-H23 lung
K-562 leukemia = tested on: K-562 leukemia
UACC-257 melanoma = tested on: UACC-257 melanoma
SNB-19 CNS = tested on: SNB-19 CNS
SK-MEL-2 melanoma = tested on: SK-MEL-2 melanoma
SK-OV-3 ovarian = tested on: SK-OV-3 ovarian
MDA-N = tested on: MDA-N
SR leukemia = tested on: SR leukemia
OVCAR-3 ovarian = tested on: OVCAR-3 ovarian
HCT-116 colon = tested on: HCT-116 colon
DU-145 prostate = tested on: DU-145 prostate
HOP-62 NSCLC = tested on: HOP-62 NSCLC
RXF 393 renal = tested on: RXF 393 renal
COLO 205 colon = tested on: COLO 205 colon
SN12C renal = tested on: SN12C renal
CCRF-CEM leukemia = tested on: CCRF-CEM leukemia
SK-MEL-5 melanoma = tested on: SK-MEL-5 melanoma
HS 578T breast = tested on: HS 578T breast
M14 melanoma = tested on: M14 melanoma
NCI-H226 lung = tested on: NCI-H226 lung
HCC-2998 colon = tested on: HCC-2998 colon
EKVX NSCLC = tested on: EKVX NSCLC
OVCAR-5 ovarian = tested on: OVCAR-5 ovarian
PC-3 prostate = tested on: PC-3 prostate
OVCAR-8 ovarian = tested on: OVCAR-8 ovarian
MDA-MB-231 breast = tested on: MDA-MB-231 breast
T-47D breast = tested on: T-47D breast
UO-31 renal = tested on: UO-31 renal
BT-549 breast = tested on: BT-549 breast
U251 CNS = tested on: U251 CNS
RPMI-8226 leukemia = tested on: RPMI-8226 leukemia
NCI/ADR-RES ovarian = tested on: NCI/ADR-RES ovarian
CAKI-1 renal = tested on: CAKI-1 renal
ACHN renal = tested on: ACHN renal
LOX IMVI melanoma = tested on: LOX IMVI melanoma
MDA-MB-435 = tested on: MDA-MB-435
SK-MEL-28 melanoma = tested on: SK-MEL-28 melanoma
A549 NSCLC = tested on: A549 NSCLC
SW-620 colon = tested on: SW-620 colon
MALME-3M melanoma = tested on: MALME-3M melanoma
MCF7 breast = tested on: MCF7 breast
NCI-H460 lung = tested on: NCI-H460 lung
SF-539 CNS = tested on: SF-539 CNS
SNB-75 CNS = tested on: SNB-75 CNS
HOP-92 NSCLC = tested on: HOP-92 NSCLC
A498 renal = tested on: A498 renal
HT29 colon = tested on: HT29 colon

Measured: TGI

c1ccc(-c2cc(-c3ccccc3)nc(-c3ccncc3)c2)cc1
55.4 µM: HOP-62 NSCLC
> 100 µM: KM12 colon | MOLT-4 leukemia | SF-268 CNS | NCI-H522 lung | IGROV1 ovarian | TK-10 renal | UACC-62 melanoma | 786-0 renal | HCT-15 colon | HL-60(TB) leukemia | SF-295 CNS | OVCAR-4 ovarian | NCI-H23 lung | K-562 leukemia | UACC-257 melanoma | SNB-19 CNS | SK-MEL-2 melanoma | SK-OV-3 ovarian | MDA-N | SR leukemia | OVCAR-3 ovarian | HCT-116 colon | DU-145 prostate | RXF 393 renal | COLO 205 colon | SN12C renal | CCRF-CEM leukemia | SK-MEL-5 melanoma | HS 578T breast | M14 melanoma | NCI-H226 lung | HCC-2998 colon | EKVX NSCLC | OVCAR-5 ovarian | PC-3 prostate | OVCAR-8 ovarian | MDA-MB-231 breast | T-47D breast | UO-31 renal | BT-549 breast | U251 CNS | RPMI-8226 leukemia | NCI/ADR-RES ovarian | CAKI-1 renal | ACHN renal | LOX IMVI melanoma | MDA-MB-435 | SK-MEL-28 melanoma | A549 NSCLC | SW-620 colon | MALME-3M melanoma | MCF7 breast

COC(=O)C(=O)C(C(=O)C(=O)Nc1cc(C)ccc1C)c1nc2ccccc2[nH]c1=O (stereo unspecified)
71.4 µM: RPMI-8226 leukemia
> 100 µM: KM12 colon | MOLT-4 leukemia | SF-268 CNS | NCI-H522 lung | IGROV1 ovarian | TK-10 renal | UACC-62 melanoma | 786-0 renal | HCT-15 colon | SF-295 CNS | OVCAR-4 ovarian | NCI-H23 lung | K-562 leukemia | UACC-257 melanoma | SNB-19 CNS | SK-MEL-2 melanoma | SK-OV-3 ovarian | MDA-N | SR leukemia | NCI-H460 lung | OVCAR-3 ovarian | HCT-116 colon | SF-539 CNS | DU-145 prostate | HOP-62 NSCLC | RXF 393 renal | COLO 205 colon | SN12C renal | CCRF-CEM leukemia | SK-MEL-5 melanoma | SNB-75 CNS | HS 578T breast | M14 melanoma | NCI-H226 lung | HCC-2998 colon | HOP-92 NSCLC | EKVX NSCLC | OVCAR-5 ovarian | PC-3 prostate | A498 renal | OVCAR-8 ovarian | MDA-MB-231 breast | T-47D breast | UO-31 renal | BT-549 breast | U251 CNS | NCI/ADR-RES ovarian | CAKI-1 renal | ACHN renal | LOX IMVI melanoma | MDA-MB-435 | HT29 colon | SK-MEL-28 melanoma | A549 NSCLC | SW-620 colon | MALME-3M melanoma | MCF7 breast
